Measured values from patent US9751885B2, “Cyclopropanamine compound and use thereof” (Takeda Pharmaceutical Company Limited, priority 2012, dated 2017).
Structures can show the parent of a compound that is named as a salt. Where two headings read alike, the source gives them in different places.

Experiments:
[1] = tested on: white blood cell number, red blood cell number, platelet number; assay: Evaluation of blood cell number in mouse; assay type: in vivo; details: oral, Day 2 after administration
Protocol: Evaluation of Blood Cell Number in Mouse
(§1) Male ICR mice (hereinafter mice) were acclimated for at least one week in a rearing facility. The mice were raised in a rearing room with controlled temperature and humidity under a 12:12 hour light-dark cycle, and allowed free ingestion of feed and water.
The compounds were suspended in 0.5% methylcellulose/0.02% citric acid/distilled water and orally administered. All compounds were administered to the mice at a dose of 1 mg/kg, 10 mg/kg, 50 mg/kg or 100 mg/kg (body weight). On Day 2 after the administration of the compound, the whole blood was collected.
Using Sysmex XT-1800i (Sysmex Corporation), the white blood cell number, red blood cell number, and platelet number in the collected whole blood per unit volume were measured. The influence of each compound on each blood cell number was determined by comparing the number with the mean of each blood cell number of the mouse without administration of the compound (control group), and the numerical value of each blood cell number of a mouse with the administration of the compound is shown in percentage. percentage (%) of blood cell number of compound administration group as compared to control group=(mean blood cell number of compound administration group mean blood cell number of compound non-administration group)×100

[2] = Evaluation of hippocampal distribution in mouse; assay type: in vivo; details: male ICR mice, 10 mg/kg oral; for concentration at 0.5 h / Kp at 0.5 h: 0.5 hr after administration; for Kp at 0.5 h / Kp at 1 h: hippocampus/plasma, read-out: hippocampus/plasma concentration ratio (mean); for concentration at 1 h / Kp at 1 h: 1 hr after administration
Protocol: Evaluation of Hippocampal Distribution in Mouse
as §1
The compounds were suspended in 0.5% methylcellulose/0.02% citric acid/distilled water and orally administered. All compounds were administered to the mice at a dose of 10 mg/kg (body weight).
Blood samples were collected at 0.5 hr, or 1 hr, or 1.5 hr from compound administration, and the hippocampus was isolated simultaneously. The plasma concentration and hippocampus concentration of each test compound were measured by the LC/MS/MS method, the ratio (hippocampus/plasma concentration ratio) was calculated, and distribution into hippocampus was evaluated.

[3] = hippocampus, read-out: hippocampus concentration (mean)
[4] = plasma, read-out: plasma concentration (mean)

Row | SMILES | platelet number, percentage of compound administration group compared to control group, mean ([1]; 10 mg/kg) [%] | red blood cell number, percentage of compound administration group compared to control group, mean ([1]; 10 mg/kg) [%] | white blood cell number, percentage of compound administration group compared to control group, mean ([1]; 10 mg/kg) [%] | platelet number, percentage of compound administration group compared to control group, mean ([1]; 100 mg/kg) [%] | red blood cell number, percentage of compound administration group compared to control group, mean ([1]; 100 mg/kg) [%] | white blood cell number, percentage of compound administration group compared to control group, mean ([1]; 100 mg/kg) [%] | concentration at 0.5 h [2, 3] [ng/g] | Kp at 0.5 h [2] | concentration at 0.5 h [2, 4] [ng/mL] | concentration at 1 h [2, 3] [ng/g] | Kp at 1 h [2] | concentration at 1 h [2, 4] [ng/mL]
1 | O=C(NC1CC(F)(F)C1)c1cc([C@@H]2C[C@H]2NCC2CC2)ccc1F (relative stereo) [Example 241, 5-(trans-2-((cyclopropylmethyl)amino)cyclopropyl)-N-(3,3-difluorocyclobutyl)-2-fluorobenzamide hydrochloride] | 102.6 | 96.9 | 94.6 | 89.2 | 99.0 | 101.9 | 878 | 5.31 | 167 |  |  | 
2 | Cc1nnc(NC(=O)c2ccc(C)c([C@@H]3C[C@H]3NC3CCOCC3)c2)s1 (relative stereo) [Example 185, 4-methyl-N-(5-methyl-1,3,4-thiadiazol-2-yl)-3-(trans-2-(tetrahydro-2H-pyran-4-ylamino)cyclopropyl)benzamide hydrochloride] | 90.4 | 102.0 | 88.0 | 84.7 | 100.7 | 129.9 | 581 | 0.58 | 1020 |  |  | 
3 | Cn1cc(NC(=O)c2cccc([C@@H]3C[C@H]3NC3CCC3)c2)cn1 (relative stereo) [Example 169, 3-(trans-2-(cyclobutylamino)cyclopropyl)-N-(1-methyl-1H-pyrazol-4-yl)benzamide dihydrochloride] | 102.2 | 105.1 | 99.1 | 100.7 | 103.7 | 109.2 |  |  |  | 396 | 0.56 | 707
4 | Cc1nnc(NC(=O)c2cccc([C@@H]3C[C@H]3NC3CCC(F)(F)CC3)c2)s1 (relative stereo) [Example 167, 3-(trans-2-((4,4-difluorocyclohexyl)amino)cyclopropyl)-N-(5-methyl-1,3,4-thiadiazol-2-yl)benzamide hydrochloride] | 105.3 | 102.5 | 86.4 | 103.2 | 102.4 | 68.2 |  |  |  | 915 | 0.74 | 1230
5 | Cc1cc(NC(=O)c2cccc([C@@H]3C[C@H]3NC3CCC3)c2)no1 (relative stereo) [Example 232, 3-(trans-2-(cyclobutylamino)cyclopropyl)-N-(5-methyl-1,2-oxazol-3-yl)benzamide hydrochloride] | 102.4 | 100.4 | 97.3 | 93.5 | 99.3 | 92.4 |  |  |  | 572 | 3.66 | 154

The next lines start with the values.

Row | platelet number, percentage of compound administration group compared to control group, mean ([1]; 10 mg/kg) [%] | red blood cell number, percentage of compound administration group compared to control group, mean ([1]; 10 mg/kg) [%] | white blood cell number, percentage of compound administration group compared to control group, mean ([1]; 10 mg/kg) [%] | platelet number, percentage of compound administration group compared to control group, mean ([1]; 100 mg/kg) [%] | red blood cell number, percentage of compound administration group compared to control group, mean ([1]; 100 mg/kg) [%] | white blood cell number, percentage of compound administration group compared to control group, mean ([1]; 100 mg/kg) [%] | concentration at 0.5 h [2, 3] [ng/g] | Kp at 0.5 h [2] | concentration at 0.5 h [2, 4] [ng/mL] | concentration at 1 h [2, 3] [ng/g] | Kp at 1 h [2] | concentration at 1 h [2, 4] [ng/mL] | SMILES
6 | 114.6 | 98.5 | 133.3 | 104.8 | 98.9 | 133.9 | 266 | 0.2 | 1310 |  |  |  | Cn1cc(NC(=O)c2cccc([C@@H]3C[C@H]3NC3CCN(CC(F)(F)F)CC3)c2)cn1 (relative stereo) [Example 171, N-(1-methyl-1H-pyrazol-4-yl)-3-(trans-2-((1-(2,2,2-trifluoroethyl)piperidin-4-yl)amino)cyclopropyl)benzamide trihydrochloride]
7 | 97.9 | 95.4 | 97.4 | 93.7 | 100.2 | 100.6 |  |  |  | 1280 |  | 1250 | Cc1nnc(NC(=O)c2cccc([C@@H]3C[C@H]3NC3CCC3)c2)s1 (relative stereo) [Example 174, 3-(trans-2-(cyclobutylamino)cyclopropyl)-N-(5-methyl-1,3,4-thiadiazol-2-yl)benzamide hydrochloride]
8 | 100.7 | 98.4 | 113.3 | 91.2 | 99.8 | 124.7 | 481 | 0.31 | 1570 |  |  |  | Cc1cc(NC(=O)c2cccc([C@@H]3C[C@H]3NC3CCC(F)(F)CC3)c2)n(C)n1 (relative stereo) [Example 215, 3-(trans-2-((4,4-difluorocyclohexyl)amino)cyclopropyl)-N-(1,3-dimethyl-1H-pyrazol-5-yl)benzamide dihydrochloride]
9 | 92.8 | 99.4 | 112.0 | 86.3 | 102.0 | 136.1 | 614 | 0.36 | 1710 |  |  |  | Cc1nnc(NC(=O)c2cccc([C@@H]3C[C@H]3NCC3CCOCC3)c2)s1 (relative stereo) [Example 112, N-(5-methyl-1,3,4-thiadiazol-2-yl)-3-(trans-2-((tetrahydro-2H-pyran-4-ylmethyl)amino)cyclopropyl)benzamide dihydrochloride]
